In publication PMC9715595, “Optimization of the precursor supply for an enhanced FK506 production in Streptomyces tsukubaensis” (Frontiers in Bioengineering and Biotechnology, 2022):
Blank lines part the entries; values can stand above or below the compound they belong to.

What was measured:
[1] = target: T1, PipAf (Pip; LCD from A. friuliensis) (Actinoplanes friuliensis, UniProt U5VYY1); assay: X-ray crystal structure ([…] Å); type: binding; settings: crystallised with 1 mM NAD+; cofactor modelled as NADH; one NADH per monomer
T1 construct: gene AFR_18570; full length, N-terminal His-tag (pET30 Ek/LIC), E. coli; monomer 339 residues, ~36 kDa, homodimer
T1 sequence (U5VYY1 1-339): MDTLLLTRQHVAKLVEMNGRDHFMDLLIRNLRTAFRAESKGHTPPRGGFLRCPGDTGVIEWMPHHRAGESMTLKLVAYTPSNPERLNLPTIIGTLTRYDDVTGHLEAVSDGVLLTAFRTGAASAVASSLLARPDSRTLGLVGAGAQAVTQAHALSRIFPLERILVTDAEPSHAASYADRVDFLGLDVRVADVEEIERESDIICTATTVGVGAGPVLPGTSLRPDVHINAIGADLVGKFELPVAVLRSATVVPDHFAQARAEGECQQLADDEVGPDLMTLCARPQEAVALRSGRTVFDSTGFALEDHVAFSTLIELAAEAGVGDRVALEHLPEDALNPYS

[2] = target: T1, PipAf (Pip; LCD from A. friuliensis); assay: X-ray crystal structure ([…] Å); type: binding; settings: co-crystallised with 140 mM lysine and 1 mM NAD+; NADH bound; pH 8.5; active site
[3] = target: lysine cyclodeaminase PipAf from Actinoplanes friuliensis (Actinoplanes friuliensis); assay: SEC; gel filtration on Superdex 200, 150 mM NaCl, 25 mM HEPES pH 7.4; main peak corresponds to a dimer

Compound: NC(=O)C1=CN([C@@H]2O[C@H](COP(=O)(O)OP(=O)(O)OC[C@H]3O[C@@H](n4cnc5c(N)ncnc54)[C@H](O)[C@@H]3O)[C@@H](O)[C@H]2O)C=CC1 [NADH]
- X-ray crystal structure (1.3 Å) [1]: One molecule NADH binds per monomer via a canonical Rossman fold

Compound: NCCCC[C@H](N)C(=O)O [lysine]
- X-ray crystal structure (1.4 Å) [2]: Lysine binds in the active site running parallel to the nicotinamide ring

- stoichiometry N [3]: 2
Compound: lysine cyclodeaminase PipAf from Actinoplanes friuliensis (enzyme)
